{"source": "paper PMC10526274", "about": "“Epithelial-Immune Cell Crosstalk Determines the Activation of Immune Cells In Vitro by the Human Cathelicidin LL-37 at Low Physiological Concentrations” (Biomolecules, 2023)", "system": "NKT cells (CD3+CD56+)", "assay": "Multiplex xMAP cytokine levels, NKT cells alone stimulated with LL-37", "format": "cell-based, human", "details": "1 µM LL-37, 24 h", "method": "NKT cells (CD3^+CD56^+) were isolated from PBMCs using the FACSVantageDiVa cell sorter (Becton Dickinson, Franklin Lakes, NJ, USA), equipped with 405, 488, and 643 nm lasers (Supporting Materials, Figure S1). PBMCs were re-suspended in the FACS buffer (PBS containing 0.5% BSA and 2 mM EDTA) and labeled with monoclonal mouse anti-human CD3-APC (clone UCHT1, Beckman Coulter, Pasadena, CA, USA) and mouse anti-human CD56-PE/Cy7 (clone N901, Beckman Coulter) antibodies to isolate NKT cells (CD3^+CD56^+).\nSorted NKT cells were expanded by stimulation with Dynabead Human T-Expander CD3/CD28 magnetic beads (Gibco) in RPMI-1640 medium containing 10% FBS, 1X antibiotic–antimycotic solution, 100 U/mL IL-2 (Gibco), and 50 ng/mL IL-7 (Sci-Store). CD3/CD28 magnetic beads were subsequently removed with a magnet. Expanded NKT cells were washed out of the cytokines and cryopreserved.\nPrimary blood monocytes, moDCs, and NKT cells were seeded in 600 µL of complete RPMI-1640 with 10% Human AB serum (Capricorn Scientific, Ebsdorfergrund, Germany) and supplemented with 1X antibiotic–antimycotic solution into the wells of 24-well plates at a density of 3–7 × 10^5 cells/well 24 h before the experiment. Then, 24 h later, the medium in each well was replaced by the same medium with 1 µM of LL-37 for the sample wells or fresh medium alone for the control wells, and the permeable inserts with the Caco-2 monolayer with TEER > 400 Ω × cm^2, containing 400 μL of the complete medium in their apical chamber, were immediately placed into the appropriate wells. Also, inserts with the Caco-2 monolayer were placed in cell-free wells of 24-well plates in the same complete RPMI-1640 medium with or without 1 µM of LL-37 as controls. Cells were kept in a CO2-incubator (5% CO2, 37 °C) for another 24 h. Then, culture medium from each well was collected, centrifuged, and frozen at −70 °C.\nTo quantitatively evaluate a broad spectrum of analytes secreted by human cell cultures at the protein level, multiplex xMAP technology was used. The chosen panel (cat. #HCYTA-60K-PX48, Merck, Darmstadt, Germany) included 48 different magnetic beads with primary antibodies to the following cytokines, chemokines, and growth factors: CCL11 (Eotaxin-1), Flt-3 ligand, CX3CL1 (Fractalkine), sCD40L, FGF-2, EGF, GROα, GM-CSF, G-CSF, IL-1RA, IL-1α, IL-1β, IL-2, IL-3, IL-4, IL-5, IL-6, IL-7, CXCL8 (IL-8), IL-9, IL-10, IL-12p40, IL-12p70, IL-13, IL-15, IL-17A (CTLA8), IL-17E (IL-25), IL-17F, IL-18, IL-22, IL-27, IFNγ, IFNα2, CXCL10 (IP-10), CCL2 (MCP-1), CCL7 (MCP-3), CCL22 (MDC), CXCL9 (MIG), CCL3 (MIP-1α), CCL4 (MIP-1β), CCL5 (RANTES), M-CSF, PDGF-AA, PDGF-AB/BB, TNFα, TNFβ, TGFα, and VEGF-A. The assay was performed in accordance with the manufacturer’s instructions with overnight incubation of the samples with primary antibodies, and the plate was read on a MAGPIX System (Merck) using the xPONENT 4.2 software (Merck). The acquired fluorescence data were analyzed by the MILLIPLEX Analyst v5.1 software (Merck), which realized an advanced curve-fitting algorithm. Levels of the analytes in control and experimental samples were compared with an unpaired two-sample t-test using GraphPad Prism v.8.0.1 (GraphPad Software, Inc., San Diego, CA, USA). The p-values ≤ 0.05 were considered significant."}
{"substance": "LL-37: the only human cathelicidin, host defense antimicrobial peptide of 37 a.a. residues, produced by solid-phase peptide synthesis", "values": [{"measurement": "IL-8 level", "setting": "n=2, control 0.21", "result": 2.37, "unit": "pg/mL"}, {"measurement": "IL-10 level", "setting": "n=2, control 1.55", "result": "<1.35↓ pg/ml"}, {"measurement": "IL-2 level", "setting": "n=2, control 1.66", "result": 1.16, "unit": "pg/mL"}, {"measurement": "FLT-3L level", "setting": "n=2, control 1.72", "result": 1.67, "unit": "pg/mL"}, {"measurement": "EGF level", "setting": "n=2, control 2.26", "result": 2.26, "unit": "pg/mL"}, {"measurement": "IL-6 level", "setting": "n=2, control 3.12", "result": 1.89, "unit": "pg/mL"}, {"measurement": "MCP-3 level", "setting": "n=2, control 4.7", "result": 4.7, "unit": "pg/mL"}, {"measurement": "MDC level", "setting": "n=2, control 5.04", "result": 2.93, "unit": "pg/mL"}, {"measurement": "IL-9 level", "setting": "n=2, control 7.06", "result": 7.45, "unit": "pg/mL"}, {"measurement": "MIG level", "setting": "n=2, control 10.31", "result": 7.16, "unit": "pg/mL"}, {"measurement": "IL-1a level", "setting": "n=2, control 11.32", "result": 13.27, "unit": "pg/mL"}, {"measurement": "IL-27 level", "setting": "n=2, control 13.33", "result": 29.42, "unit": "pg/mL"}, {"measurement": "IFNg level", "setting": "n=2, control 13.41", "result": 12.33, "unit": "pg/mL"}, {"measurement": "TNFa level", "setting": "n=2, control 14.53", "result": 13.36, "unit": "pg/mL"}, {"measurement": "sCD40L level", "setting": "n=2, control 18.13", "result": "<8.15↓ pg/ml"}, {"measurement": "FGF-2 level", "setting": "n=2, control 29.25", "result": 21.45, "unit": "pg/mL"}, {"measurement": "IP-10 level", "setting": "n=2, control 56.07", "result": 50.77, "unit": "pg/mL"}, {"measurement": "M-GSF level", "setting": "n=2, control 66.65", "result": 60.35, "unit": "pg/mL"}, {"measurement": "MIP-1b level", "setting": "n=2, control 67.9", "result": 58.14, "unit": "pg/mL"}, {"measurement": "GM-CSF level", "setting": "n=2, control 76.24", "result": 76.06, "unit": "pg/mL"}, {"measurement": "IL-13 level", "setting": "n=2, control 251.23", "result": 237.88, "unit": "pg/mL"}, {"measurement": "IL-5 level", "setting": "n=2, control 323.09", "result": 285.93, "unit": "pg/mL"}, {"measurement": "RANTES level", "setting": "n=2, control 1182", "result": 1237, "unit": "pg/mL"}, {"measurement": "MIP-1a level", "setting": "n=2, control 1355", "result": 1113, "unit": "pg/mL"}, {"measurement": "IL-7 level", "setting": "n=2, control <0.30", "result": "<0.30↓ pg/ml"}, {"measurement": "IL-18 level", "setting": "n=2, control <0.30", "result": "<0.30↓ pg/ml"}, {"measurement": "IL-3 level", "setting": "n=2, control <0.55", "result": "<0.55↓ pg/ml"}, {"measurement": "GROa level", "setting": "n=2, control <0.66", "result": "<0.66↓ pg/ml"}, {"measurement": "TGF-a level", "setting": "n=2, control <0.68", "result": "<0.68↓ pg/ml"}, {"measurement": "IL-17A level", "setting": "n=2, control <0.70", "result": "<0.70↓ pg/ml"}, {"measurement": "IL-1b level", "setting": "n=2, control <0.74", "result": "<0.74↓ pg/ml"}, {"measurement": "IL-4 level", "setting": "n=2, control <0.87", "result": "<0.87↓ pg/ml"}, {"measurement": "IL-1RA level", "setting": "n=2, control <0.93", "result": "<0.93↓ pg/ml"}, {"measurement": "TNFb level", "setting": "n=2, control <0.93", "result": 1, "unit": "pg/mL"}, {"measurement": "VEGFa level", "setting": "n=2, control <1.26", "result": "<1.26↓ pg/ml"}, {"measurement": "MCP-1 level", "setting": "n=2, control <1.35", "result": "<1.35↓ pg/ml"}, {"measurement": "IL-15 level", "setting": "n=2, control <1.54", "result": "<1.54↓ pg/ml"}, {"measurement": "IL-12 (p70) level", "setting": "n=2, control <1.71", "result": "<1.71↓ pg/ml"}, {"measurement": "G-CSF level", "setting": "n=2, control <2.32", "result": "<2.32↓ pg/ml"}, {"measurement": "Eotaxin level", "setting": "n=2, control <2.91", "result": "<2.91↓ pg/ml"}, {"measurement": "IL-12 (p40) level", "setting": "n=2, control <3.33", "result": "<3.33↓ pg/ml"}, {"measurement": "IFNa2 level", "setting": "n=2, control <3.88", "result": "<3.88↓ pg/ml"}, {"measurement": "PDGF-AB/BB level", "setting": "n=2, control <5.00", "result": "<5.00↓ pg/ml"}, {"measurement": "PDGF-AA level", "setting": "n=2, control <6.49", "result": "<6.49↓ pg/ml"}, {"measurement": "IL-22 level", "setting": "n=2, control <6.61", "result": "<6.61↓ pg/ml"}, {"measurement": "IL-17F level", "setting": "n=2, control <12.19", "result": "<12.19↓ pg/ml"}, {"measurement": "Fractalkine level", "setting": "n=2, control <18.09", "result": "<18.09↓ pg/ml"}, {"measurement": "IL-17E/IL-25 level", "setting": "n=2, control <19.43", "result": "<19.43↓ pg/ml"}]}
